Like-named read-outs stand apart in the source and are kept apart here.
Key:
[1] = system: TNFα secretion from LPS stimulated white blood cells from human buffy coat; assay: TNFα secretion assay, LPS stimulation; settings: for inhibition at 0.03 µM: read-out: TNFα LPS percent inhibition, 0.03 μM; for inhibition at 0.06 µM: read-out: TNFα LPS percent inhibition, 0.06 μM
Description: (§1) Various concentrations of each test compound were added at the time of stimulation. […] After the plate was washed with 0.1% Tween 20/PBS, an HRP-luminescent substrate was added to each well and light intensity measured using a LJL Analyst plate luminometer.

[2] = system: TNFα secretion from PMA/ionomycin stimulated white blood cells from human buffy coat; assay: TNFα secretion assay, PMA/ionomycin stimulation; settings: for inhibition at 0.03 µM: read-out: TNFα PI percent inhibition, 0.03 μM; for inhibition at 0.06 µM: read-out: TNFα PI percent inhibition, 0.06 μM
Description: as §1

cytokine secretion = assay: Suppression of cytokine secretion in vitro by individual tricyclic compounds
Description: Individual tricyclic compounds were tested for their ability to suppress cytokine secretion in vitro.

[3] = Homo sapiens, read-out: TNFα LPS percent inhibition, […]
[4] = read-out: TNFα PI percent inhibition, […]
[5] = read-out: IL-1β LPS percent inhibition
[6] = read-out: IL-2 PI percent inhibition

## CN(C)CCC=C1c2ccccc2COc2ccccc21 [Doxepin, doxepin]
[1]; Homo sapiens
  inhibition at 0.03 µM: 0%
  inhibition at 0.06 µM: 5%
[1]; [3]
  inhibition at 63 µM: 13%
[2]
  inhibition at 0.03 µM: 0%
  inhibition at 0.06 µM: 0%
[2]; [4]
  inhibition at 63 µM: 78%
Cytokine secretion; [5]
  inhibition at 0.03 µM: 0%
  inhibition at 0.06 µM: 1%
  inhibition at 63 µM: 26%
Cytokine secretion; [6]
  inhibition at 0.03 µM: 0%
  inhibition at 0.06 µM: 0%
  inhibition at 63 µM: 61%

## CNCCCN1c2ccccc2CCc2ccccc21 [Desipramine, desipramine]
[1]; Homo sapiens
  inhibition at 0.03 µM: 0%
  inhibition at 0.06 µM: 0%
[1]; Homo sapiens, read-out: TNFα LPS percent inhibition, 0.50 μM
  inhibition at 0.5 µM: 0%
[1]; Homo sapiens, read-out: TNFα LPS percent inhibition, 1.00 μM
  inhibition at 1 µM: 0%
[1]; Homo sapiens, read-out: TNFα LPS percent inhibition, 2.00 μM
  inhibition at 2 µM: 0%
[1]; Homo sapiens, read-out: TNFα LPS percent inhibition, 4.00 μM
  inhibition at 4 µM: 0%
[1]; Homo sapiens, read-out: TNFα LPS percent inhibition, 8.00 μM
  inhibition at 8 µM: 0%
[1]; [3]
  inhibition at 16 µM: 3%
  inhibition at 32 µM: 34%
  inhibition at 64 µM: 64%
[1]; LPS, Prednisolone 1 μM, Desipramine μM r5-r13: 0,0.5,1,2,4,8,16,32,64
  percent inhibition of TNFα secretion: 60.8%
[2]
  inhibition at 0.03 µM: 0%
  inhibition at 0.06 µM: 0%
[2]; read-out: TNFα PI percent inhibition, 0.50 μM
  inhibition at 0.5 µM: 0%
[2]; read-out: TNFα PI percent inhibition, 1.00 μM
  inhibition at 1 µM: 0%
[2]; read-out: TNFα PI percent inhibition, 2.00 μM
  inhibition at 2 µM: 1%
[2]; read-out: TNFα PI percent inhibition, 4.00 μM
  inhibition at 4 µM: 17%
[2]; read-out: TNFα PI percent inhibition, 8.00 μM
  inhibition at 8 µM: 26%
[2]; [4]
  inhibition at 16 µM: 60%
  inhibition at 32 µM: 79%
  inhibition at 64 µM: 89%
Cytokine secretion; [5]
  inhibition at 0.03 µM: 0%
  inhibition at 0.06 µM: 0%
  inhibition at 0.5 µM: 11%
  inhibition at 1 µM: 13%
  inhibition at 2 µM: 10%
  inhibition at 4 µM: 10%
  inhibition at 8 µM: 10%
  inhibition at 16 µM: 3%
  inhibition at 32 µM: 9%
  inhibition at 64 µM: 36%
Cytokine secretion; [6]
  inhibition at 0.03 µM: 0%
  inhibition at 0.06 µM: 0%
  inhibition at 0.5 µM: 0%
  inhibition at 1 µM: 0%
  inhibition at 2 µM: 0%
  inhibition at 4 µM: 0%
  inhibition at 8 µM: 8%
  inhibition at 16 µM: 38%
  inhibition at 32 µM: 68%
  inhibition at 64 µM: 76%

## CN(C)CCCN1c2ccccc2CCc2ccccc21 [Imipramine, imipramine]
[1]; Homo sapiens
  inhibition at 0.03 µM: 0%
  inhibition at 0.06 µM: 10%
[1]; [3]
  inhibition at 63 µM: 3%
[2]
  inhibition at 0.03 µM: 0%
  inhibition at 0.06 µM: 0%
[2]; [4]
  inhibition at 63 µM: 92%
Cytokine secretion; [5]
  inhibition at 0.03 µM: 0%
  inhibition at 0.06 µM: 0%
  inhibition at 63 µM: 13%
Cytokine secretion; [6]
  inhibition at 0.03 µM: 0%
  inhibition at 0.06 µM: 19%
  inhibition at 63 µM: 85%

Source: US20090075951A1, “Methods and Reagents for the Treatment of Inflammatory Disorders” (CombinatoRx, Inc., priority 2003, published 2009)
